{"source": "patent US20050074803A1", "about": "“Method for determining an active agent dose” (Bayer Technology Services GmbH, priority 2003, published 2005)", "key": {"[1]": {"conditions": "human"}, "[2]": {"conditions": "0.25 mg digoxin, cited from earlier work"}, "[3]": {"assay": "Experimental maximum plasma concentration of digoxin in patients by MDR1 exon 26 (C3435T) polymorphism", "assay_type": "in vivo, human", "conditions": "type TT versus wild type", "source_text": "The transport protein which has been most widely studied and described in the literature is p-glycoprotein (P-Gp) which, besides other organs, is expressed particularly in the gut where it can have an influence on the absorption of orally applied active agents. The associated gene is generally identified as MDR1. MDR1 may be present in different alleles, it being known that these lead to different activity of the associated protein (see Martin F. Fromm, The influence of MDR1 polymorphisms on P-glycoprotein expression and function in humans, Advanced Drug Delivery Reviews 54, 1295 (2002)). For P-Gp, tables of pharmaceutical active agents which are a substrate for it have been published (see for example C. J. Matheny et al., Pharmacokinetic and Pharmacodynamic Implications of P-glycoprotein Modulation, Pharmacotherapy, 21, 778 (2001)). One example of such a substrate is digoxin.\nFor instance, the Cmax values (maximum plasma concentration) listed in Table 1 are given for the polymorphism in exon 26 (C3435T)."}}, "note": "Where two headings read alike, the source gives them in different places.", "data": [{"smiles": "C[C@H]1O[C@@H](O[C@H]2[C@@H](O)C[C@H](O[C@H]3[C@@H](O)C[C@H](O[C@H]4CC[C@@]5(C)[C@H](CC[C@@H]6[C@@H]5C[C@@H](O)[C@]5(C)[C@@H](C7=CC(=O)OC7)CC[C@]65O)C4)O[C@@H]3C)O[C@@H]2C)C[C@H](O)[C@@H]1O", "note": "[digoxin]", "values": [{"measurement": "clearance", "setting": "[1]", "result": 0.48, "unit": "mL/min/kg"}, {"measurement": "Papp", "setting": "[1]; not told", "result": 1.4, "unit": "×10⁻⁶ cm/s"}, {"measurement": "fraction unbound", "setting": "[1]; plasma", "result": 0.73}, {"measurement": "Cmax experiment", "setting": "[2]; patients with CC (wild type) polymorphism in exon 26 (C3435T) of MDR1, plasma", "result": 1.6, "unit": "ng/mL"}, {"measurement": "Cmax experiment", "setting": "[2]; patients with TT (homozygotic) polymorphism in exon 26 (C3435T) of MDR1, plasma", "result": 2.1, "unit": "ng/mL"}, {"measurement": "experimentally found increase of Cmax", "setting": "[3]", "result": 30, "unit": "%"}]}]}
